According to patent US9926315B2, “Triazolopyridine compounds and methods for the treatment of cystic fibrosis” (Flatley Discovery Lab, LLC, priority 2014, dated 2018):

Target: T1, human ΔF508-CFTR (Homo sapiens, UniProt P13569, DEL508-508)
T1 construct: expressed in transfected cells
Assay: CFTR-YFP High Throughput Assay (HTS YFP flux assay, corrector / potentiator protocols)
Type: cell-based
Details: FRT cells stably expressing human ΔF508-CFTR and YFP-H148Q/I152L; for Emax: normalized to positive control, read-out: Emax (% Efficacy, EMax normalized to the positive control)
Procedure: Assays for Detecting and Measuring the Effect of Compounds on dF508-CFTR Channels CFRT-YFP High Throughput Assay: Corrector Assay:
The following protocol is designed to selectively screen small molecule compounds for F508del CFTR corrector activities in the HTS YFP flux assay. In this protocol, the cells are incubated with testing compounds for 24 hours, washed with PBS, stimulated with forskolin and a standard potentiator, and read on a 384-well HTS plate reader, such as the Hamamatsu FDDD-6000.
(§1) YFP fluorescence intensity is acquired at high speed before and after iodide buffer is injected to the assay cells. Iodide enters the cells via active CFTR channels in the plasma membrane, and quenches the YFP fluorescence. The rate of fluorescence quenching is proportionally related to the total CFTR activities in the cell membrane. dF508-CFTR corrector accelerates YFP quenching by increasing the number of CFTR molecules in the testing cell plasma membrane.
This method was initially developed for bench top plate readers (Galietta, 2001), and was adapted to the HTS format (Sui, 2010).
Fisher Rat Thyroid (FRT) cells stably expressing both human ΔF508-CFTR and a halide-sensitive yellow fluorescent protein (YFP-H148Q/I152L 25, 22) (Galietta, 2001) were cultured on plastic surface in Coon's modified Ham's F12 medium supplemented with FBS 10%, L-glutamine 2 mM, penicillin 100 U/mL, and streptomycin 100 μg/mL. G418 (0.75-1.0 mg/mL) and zeocin (3.2 μg/mL) were used for selection of FRT cells expressing ΔF508-CFTR and YFP. For primary screening, FRT cells were plated into 384-well black wall, transparent bottom microtiter plates (Costar; Corning Inc.) at a cell density of 20, 000-40, 000 per well. Test compound was applied to the cells at varying concentrations ranging from 2 nM-[…] in either a 2-fold or 3-fold dilution series. Cells were incubated in a cell culture incubator at 37° C. with 5% CO2 for 24-26 h. Assay plates were washed with DPBS media (Thermo, cat#SH30028.02) to remove unbound cells and compound. Stimulation media (25 μL) containing 20 μM Forskolin & 30 μM P3 [6-(Ethyl-phenyl-sulfonyl)-4-oxo-1, 4-dihydro-quinoline-3-carboxylic acid 2-methoxy-benzylamide] in Hams F-12 coon's modified media was added to the plate wells and incubated at room temperature for 60-120 min. 25 μL of HEPES-PBS-I buffer (10 mM HEPES, 1 mM MgCl2, 3 mM KCl, 1 mM CaCl2, 150 mM NaI) was then added and fluorescence quench curves (Excitation 500 nm/Emission 540 nm; exposure 136 ms) were immediately recorded on an FDSS-6000 plate reader (Hamamatsu). Quench rates were derived from least squares fitting of the data (Sui, 2010).
The following protocol is designed to selectively screen small molecule compounds for F508del CFTR potentiator activities in the HTS YFP flux assay. In this protocol, the cells are incubated at 27° C. for 24 hours with homogeneously boosted dF508-CFTR expression in the cell membrane by the low temperature, washed with PBS, stimulated with forskolin, and read on a 384-well HTS plate reader, such as the Hamamatsu […].
as §1, with “dF508del-CFTR potentiators accelerate” for “dF508-CFTR corrector accelerates”, “increasing” for “increasing the number of”, “activities” for “molecules”
Fisher Rat Thyroid (FRT) cells stably expressing both human ΔF508-CFTR and a halide-sensitive yellow fluorescent protein (YFP-H148Q/I152L 25, 22) (Galietta, 2001) were cultured on plastic surface in Coon's modified Ham's F12 medium supplemented with FBS 10%, L-glutamine 2 mM, penicillin 100 U/mL, and streptomycin 100 μg/mL. G418 (0.75-1.0 mg/mL) and zeocin (3.2 μg/mL) were used for selection of FRT cells expressing ΔF508-CFTR and YFP. […]

T1 sequence (P13569 with tags, fused parts or gaps DEL508-508): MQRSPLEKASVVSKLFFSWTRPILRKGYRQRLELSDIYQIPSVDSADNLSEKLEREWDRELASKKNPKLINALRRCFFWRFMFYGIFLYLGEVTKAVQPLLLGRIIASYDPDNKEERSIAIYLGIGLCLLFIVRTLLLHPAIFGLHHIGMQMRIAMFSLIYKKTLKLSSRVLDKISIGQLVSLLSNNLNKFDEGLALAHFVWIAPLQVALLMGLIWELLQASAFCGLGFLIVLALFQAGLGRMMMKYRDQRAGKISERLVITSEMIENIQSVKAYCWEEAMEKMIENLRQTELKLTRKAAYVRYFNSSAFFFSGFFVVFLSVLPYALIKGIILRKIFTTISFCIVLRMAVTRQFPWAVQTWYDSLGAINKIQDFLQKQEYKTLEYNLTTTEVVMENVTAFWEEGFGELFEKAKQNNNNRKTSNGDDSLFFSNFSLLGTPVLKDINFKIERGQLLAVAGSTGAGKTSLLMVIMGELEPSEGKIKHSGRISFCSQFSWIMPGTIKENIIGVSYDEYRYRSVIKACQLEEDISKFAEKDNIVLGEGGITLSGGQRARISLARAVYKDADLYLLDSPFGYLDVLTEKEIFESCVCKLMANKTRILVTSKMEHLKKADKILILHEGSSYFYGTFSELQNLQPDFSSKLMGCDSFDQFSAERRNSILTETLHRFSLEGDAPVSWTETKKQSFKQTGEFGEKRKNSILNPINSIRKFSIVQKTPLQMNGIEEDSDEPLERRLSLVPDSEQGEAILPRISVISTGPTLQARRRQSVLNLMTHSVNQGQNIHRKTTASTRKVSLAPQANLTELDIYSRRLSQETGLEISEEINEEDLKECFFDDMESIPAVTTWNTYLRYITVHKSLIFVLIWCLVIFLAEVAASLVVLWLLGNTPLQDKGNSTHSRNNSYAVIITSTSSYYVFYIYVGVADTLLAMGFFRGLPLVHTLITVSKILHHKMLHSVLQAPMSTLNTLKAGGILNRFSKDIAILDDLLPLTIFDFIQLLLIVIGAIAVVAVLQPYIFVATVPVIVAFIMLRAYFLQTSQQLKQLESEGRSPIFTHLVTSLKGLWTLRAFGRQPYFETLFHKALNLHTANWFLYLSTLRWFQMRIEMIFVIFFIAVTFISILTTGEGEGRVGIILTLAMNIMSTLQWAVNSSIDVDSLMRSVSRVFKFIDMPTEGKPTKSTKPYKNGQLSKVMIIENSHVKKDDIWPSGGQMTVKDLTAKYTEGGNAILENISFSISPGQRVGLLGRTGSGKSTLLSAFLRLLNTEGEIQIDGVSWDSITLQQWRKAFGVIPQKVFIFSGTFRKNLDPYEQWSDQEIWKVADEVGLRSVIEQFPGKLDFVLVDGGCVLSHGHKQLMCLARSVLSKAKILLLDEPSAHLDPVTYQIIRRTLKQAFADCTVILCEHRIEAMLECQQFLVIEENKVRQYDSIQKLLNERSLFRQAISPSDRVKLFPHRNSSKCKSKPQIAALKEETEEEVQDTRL

EC50 [µM] | Emax [%] | Structure (SMILES)
< 1 | > 80 | CCN(CC)S(=O)(=O)c1ccc2nnc(NCCC(C)C)n2c1 [Example 19]
1 to 10 | 40 to 80 | CCN(CC)S(=O)(=O)c1ccc2nnc(NC(=O)c3ccccc3)n2c1 [Example 12]
1 to 10 | > 80 | CCN(CC)S(=O)(=O)c1ccc2nnc(NCC3CCCCC3)n2c1 [Example 52]
< 1 | 40 to 80 | COc1ccc(S(=O)(=O)Nc2ccc3nnc(NCc4ccccc4)n3c2)cc1 [Example 59, N-(3-(Benzylamino)-[1,2,4]triazolo[4,3-a]pyridine-6-yl)-4-methoxybenzenesulfonamide]
< 1 | > 80 | O=S(=O)(c1ccccc1)c1ccc2nnc(NCC(O)c3ccc(F)cc3)n2c1 (centres unmarked) [Example 75]
1 to 10 | 40 to 80 | Cc1ccc([C@@H](C)Nc2nc3ccc(S(=O)(=O)c4ccccc4)cn3n2)cc1 [Example 90]
1 to 10 | > 80 | O=S(=O)(c1ccc2nc(NCc3ccc4c(c3)OCO4)nn2c1)N1CCCCC1 [Example 101, N-(benzo[d][1,3]dioxol-5-ylmethyl)-6-(piperidin-1-ylsulfonyl)-[1,2,4]-triazolo[1,5-a]pyridin-2-amine]
< 1 | > 80 | CCN(CC)S(=O)(=O)c1ccc2nnc(NCCc3ccccc3)n2c1 [Example 25]
< 1 | > 80 | CCN(CC)S(=O)(=O)c1ccc2nnc(N[C@H](C)C3CCCCC3)n2c1 [Example 34]
1 to 10 | 40 to 80 | c1ccc(-c2ccc3nc(Nc4ccc(-c5ccccn5)cc4)nn3c2)cc1 [Example 100, 6-phenyl-N-(4-(pyridin-2-yl)phenyl)-[1,2,4]triazolo[1,5-a]pyridin-2-amine]
< 1 | > 80 | CCN(CC)S(=O)(=O)c1ccc2nnc(NC3CCCc4ccccc43)n2c1 (centres unmarked) [Example 2]
< 1 | > 80 | CCN(CC)S(=O)(=O)c1ccc2nnc(NCC3CC3)n2c1 [Example 8]
1 to 10 | > 80 | C[C@@H](Nc1nnc2ccc(S(=O)(=O)c3ccc(Cl)cc3)cn12)c1ccccc1 [Example 72]
< 1 | > 80 | CCN(CC)S(=O)(=O)c1ccc2nnc(NC(C)C(C)C)n2c1 (centres unmarked) [Example 43]
< 1 | > 80 | O=S(=O)(c1ccccc1)c1ccc2nnc(NCC(O)COc3ccccc3)n2c1 (centres unmarked) [Example 67]
< 1 | > 80 | CCN(CC)S(=O)(=O)c1ccc2nnc(NC3CCOc4ccccc43)n2c1 (centres unmarked) [Example 44]
< 1 | 40 to 80 | CCN(c1cccnc1)S(=O)(=O)c1ccc2nnc(N[C@H](C)c3ccccc3)n2c1 [Example 58, (R)—N-Ethyl-3-((1-phenylethyl)amino)-N-(pyridin-3-yl)-[1,2,4]triazolo[4,3-a]pyridine-6-sulfonamide]
< 1 | > 80 | CCN(CC)S(=O)(=O)c1ccc2nnc(NC3CCCC3)n2c1 [Example 26]
< 1 | > 80 | O=S(=O)(c1ccccc1)c1ccc2nc(NCCC3CCCCC3)nn2c1 [Example 88]
< 1 | > 80 | CCN(CC)S(=O)(=O)c1ccc2nnc(NCc3cccc(C)c3)n2c1 [Example 10]
< 1 | > 80 | O=C(CNc1nc2ccc(S(=O)(=O)c3ccccc3)cn2n1)C1CCCCC1 [Example 87]
< 1 | > 80 | CCN(CC)S(=O)(=O)c1ccc2nnc(NCc3ccc(N(C)C)cc3)n2c1 [Example 37]
< 1 | > 80 | O=S(=O)(c1ccccc1)c1ccc2nnc(NCC(O)C3CCCC3)n2c1 (centres unmarked) [Example 73]

EC50 [µM] | Emax [%] | Structure (SMILES)
< 1 | 40 to 80 | CCN(CC)S(=O)(=O)c1ccc2nnc(NCC(C)(C)C)n2c1 [Example 7]
< 1 | > 80 | C[C@@H](Nc1nnc2ccc(S(=O)(=O)c3ccccc3)cn12)c1ccccc1 [Example 62, (R)—N-(1-Phenylethyl)-6-(phenylsulfonyl)-[1,2,4]triazolo[4,3-a]pyridin-3-amine]
< 1 | > 80 | CCN(CC)S(=O)(=O)c1ccc2nnc(N[C@H](C)c3ccc(C)cc3)n2c1 [Example 35]
< 1 | > 80 | O=S(=O)(c1ccccc1)c1ccc2nc(NCc3ccc(-c4ccccn4)cc3)nn2c1 [Example 94, 6-(phenylsulfonyl)-N-(4-(pyridin-2-yl)benzyl)-[1,2,4]triazolo[1,5-a]pyridin-2-amine]
1 to 10 | > 80 | CCN(CC)S(=O)(=O)c1ccc2nnc(NCC(O)COC)n2c1 (centres unmarked) [Example 24]
< 1 | > 80 | CCN(CC)S(=O)(=O)c1ccc2nnc(NCc3ccc(C(F)(F)F)cc3)n2c1 [Example 48]
< 1 | 40 to 80 | CCN(CC)S(=O)(=O)c1ccc2nnc(N(C)Cc3ccccc3)n2c1 [Example 3]
1 to 10 | 40 to 80 | CCN(CC)S(=O)(=O)c1ccc2nnc(N3CCN(Cc4ccccc4)CC3)n2c1 [Example 6]
< 1 | > 80 | CCN(CC)S(=O)(=O)c1ccc2nnc(NCc3ccc4c(c3)CCO4)n2c1 [Example 40]
< 1 | 10 to 40 | CCN(CC)S(=O)(=O)c1ccc2nnc(NCc3ccc(OC(F)(F)F)cc3)n2c1 [Example 55]
1 to 10 | 40 to 80 | CCN(CC)S(=O)(=O)c1ccc2nnc(N[C@@H](C)C(=O)N3CCCCC3)n2c1 [Example 57]
< 1 | > 80 | CCN(CC)S(=O)(=O)c1ccc2nnc(N[C@H](C)c3ccc(F)cc3)n2c1 [Example 41]
< 1 | > 80 | CCN(CC)S(=O)(=O)c1ccc2nnc(NCC3CCOCC3)n2c1 [Example 50]
< 1 | > 80 | O=S(=O)(c1ccccc1)c1ccc2nnc(NC[C@H](O)C3CCCCC3)n2c1 [Example 69]
< 1 | > 80 | CCN(CC)S(=O)(=O)c1ccc2nnc(NCc3ccc(F)cc3)n2c1 [Example 49]
< 1 | > 80 | CCN(CC)S(=O)(=O)c1ccc2nnc(NC3CCc4ccccc43)n2c1 (centres unmarked) [Example 30]
1 to 10 | > 80 | CCN(CC)S(=O)(=O)c1ccc2nnc(NCc3ccccc3F)n2c1 [Example 54]
< 1 | 40 to 80 | CC(C)N(C(C)C)S(=O)(=O)c1ccc2nnc(N[C@H](C)c3ccccc3)n2c1 [Example 47]
< 1 | > 80 | O=S(=O)(c1ccccc1)c1ccc2nnc(NCc3ccc(-c4ccccn4)cc3)n2c1 [Example 65]
< 1 | > 80 | CCN(CC)S(=O)(=O)c1ccc2nnc(N[C@@H]3C[C@H]4CC[C@@H]3C4)n2c1 [Example 33]
< 1 | > 80 | CCC(Nc1nnc2ccc(S(=O)(=O)N(CC)CC)cn12)c1ccccc1 (centres unmarked) [Example 29]
< 1 | > 80 | CCN(CC)S(=O)(=O)c1ccc2nnc(N[C@@H](C)c3ccc(C)cc3)n2c1 [Example 38]
< 1 | > 80 | O=S(=O)(c1ccccc1)c1ccc2nnc(NC3Cc4ccccc4C3)n2c1 [Example 64]
